In patent publication US9376442B2, “Methylpyrrolopyrimidinecarboxamides” (Takeda GmbH, priority 2009, dated 2016):

What follows are molecules tested against T1, PDE5A1 (Homo sapiens, UniProt O76074) (assay: Inhibition of type 5 phosphodiesterase (PDE5) activity, modified SPA test with human platelet lysate). Details: 0.5 μM cGMP, read-out: PDE5A1 inhibitory values [measured as −log IC50 (mol/l)] (converted).
T1 construct: from tissue; host or cells: human platelets from fresh donor blood (10,000 x g supernatant of sonicated lysate)
Type: biochemical
Procedure: Method for Measuring Inhibition of the Type 5 Phosphodiesterase (PDE5) Activity:
As a source for human PDE5, platelets are used. For that purpose, 150 ml fresh blood from human donors anticoagulated with citrate [final concentration 0.3% (w/v)] is centrifuged at 200 g for 10 min to obtain the so-called platelet-rich-plasma (PRP) as a supernatant. 1/10 volume of ACD solution (85 mM Na3-citrate, 111 mM D-glucose, 71 mM citric acid, pH 4.4) is added to 9/10 volume of PRP. After centrifugation (1,400 g, 10 min) the cell pellet is resuspended in 3 ml homogenization buffer (NaCl 140 mM, KCl 3.8 mM, EGTA (ethylene glycol tetraacetic acid) 1 mM, MgCl2 1 mM, Tris-HCl 20 mM, beta-mercaptoethanol 1 mM, pH 8.2) plus protease-inhibitor mix giving rise to the final concentrations of 0.5 mM Pefablock (Roche), 10 μM Leupeptin, 5 μM Trypsininhibitor, 2 mM Benzamidin and 10 μM Pepstatin A. The suspension is sonified and thereafter centrifuged for 15 min at 10,000 g. The resulting supernatant (platelet lysate) is used for enzymatic testings.
PDE5A1 activity is inhibited by the compounds of the present subject matter in a modified SPA (scintillation proximity assay) test, supplied by Amersham Biosciences (see procedural instructions “phosphodiesterase [3H]cAMP SPA enzyme assay, code TRKQ 7090”), carried out in 96-well microtitre plates (MTP's). The test volume is 100 μl and contains 20 mM Tris buffer (pH 7.4), 0.1 mg of BSA (bovine serum albumin)/ml, 5 mM Mg^2+, 1 μM motapizone, 10 nM PDE2 inhibitor 2-(3,4-dimethoxybenzyl)-7-[(1R,2R)-2-hydroxy-1-(2-phenylethyl)propyl]-5-methylimidazo[5,1-f][1,2,4]triazin-4(3H)-one, 0.5 μM cGMP (cyclic guanosine monophosphate) (including about 50,000 cpm of [3H]cGMP as a tracer), 1 μl of the respective compound dilution in dimethylsulfoxide (DMSO) and sufficient PDE5-containing platelet lysat (10,000×g supernatant, see above) to ensure that 10-20 wt % of the cGMP is converted under the said experimental conditions. […] After a preincubation of 5 min at 37° C., the reaction is started by adding the substrate (cGMP) and the assay is incubated for a further 15 min; after that, it is stopped by adding SPA beads (50 μl). In accordance with the manufacturer's instructions, the SPA beads had previously been resuspended in water, but are then diluted 1:3 (v/v) in water; the diluted solution also contains 3 mM […] (IBMX) to ensure a complete PDE activity stop. After the beads have been sedimented (>30 min), the MTP's are analyzed in commercially available luminescence detection devices. The corresponding IC50 values of the compounds for the inhibition of PDE activity are determined from the concentration-effect curves by means of non-linear regression.
Molecule CCOc1ccc(F)cc1-c1ncnc2c(C(=O)NC3CCN(C(=O)[C@H](C)O)CC3)c(C)[nH]c12 [Example F33, 4-(2-Ethoxy-5-fluorophenyl)-N-{1-[(2S)-2-hydroxypropanoyl]piperidin-4-yl}-6-methyl-5H-pyrrolo[3,2-d]pyrimidine-7-carboxamide] has an IC50 of 1 to 10 nM.
In the case of COCC(=O)N1CC[C@@H](NC(=O)c2c(C)[nH]c3c(-c4ccc(F)cc4OCC4CC4)ncnc23)C1 [Example E30, 4-[2-(Cyclopropylmethoxy)-4-fluorophenyl]-N-[(3R)-1-(methoxyacetyl)pyrrolidin-3-yl]-6-methyl-5H-pyrrolo[3,2-d]pyrimidine-7-carboxamide], the IC50 is reported as < 1 nM.
For COCC(=O)N1CC[C@@H](NC(=O)c2c(C)[nH]c3c(-c4cc(F)c(OC)cc4OCC4CC4)ncnc23)[C@H](O)C1 (relative stereo) [Example E144, 4-[2-(Cyclopropylmethoxy)-5-fluoro-4-methoxyphenyl]-N-[(3R*,4R*)-3-hydroxy-1-(methoxyacetyl)piperidin-4-yl]-6-methyl-5H-pyrrolo[3,2-d]pyrimidine-7-carboxamide], the IC50 was < 1 nM.
For CCC(=O)N1CCC(NC(=O)c2c(C)[nH]c3c(-c4c(OCC5CC5)ccc5c4OCO5)ncnc23)CC1 [Example E2, 4-[5-(Cyclopropylmethoxy)-1,3-benzodioxol-4-yl]-6-methyl-N-(1-propionylpiperidin-4-yl)-5H-pyrrolo[3,2-d]pyrimidine-7-carboxamide], the IC50 was < 1 nM.
For CCOC(=O)N[C@H]1CC[C@H](NC(=O)c2c(C)[nH]c3c(-c4c(OCC5CC5)ccc5c4OCO5)ncnc23)CC1 [Example E8, Ethyl {trans-4-[({4-[5-(cyclopropylmethoxy)-1,3-benzodioxol-4-yl]-6-methyl-5H-pyrrolo[3,2-d]pyrimidin-7-yl}carbonyl)amino]cyclohexyl}carbamate], the IC50 was < 1 nM.
For CC(=O)N1C[C@@H](O)[C@H](NC(=O)c2c(C)[nH]c3c(-c4c(OCC5CC5)ccc5c4OCO5)ncnc23)C1 (relative stereo) [Example E16, N-[(3R*,4R*)-1-acetyl-4-hydroxypyrrolidin-3-yl]-4-[5-(cyclopropylmethoxy)-1,3-benzodioxol-4-yl]-6-methyl-5H-pyrrolo[3,2-d]pyrimidine-7-carboxamide], the IC50 was < 1 nM.
In the case of CCC(=O)N[C@H]1CC[C@H](NC(=O)c2c(C)[nH]c3c(-c4cc(OC)c(F)cc4OCC4CC4)ncnc23)CC1 [Example E107, 4-[2-(Cyclopropylmethoxy)-4-fluoro-5-methoxyphenyl]-6-methyl-N-[trans-4-(propionylamino)cyclohexyl]-5H-pyrrolo[3,2-d]pyrimidine-7-carboxamide], the IC50 is reported as < 1 nM.
In the case of COc1cc(OCC2CC2)c(-c2ncnc3c(C(=O)NC4CCN(C(=O)CO)CC4)c(C)[nH]c23)cc1F [Example F83, 4-[2-(Cyclopropylmethoxy)-5-fluoro-4-methoxyphenyl]-N-(1-glycoloylpiperidin-4-yl)-6-methyl-5H-pyrrolo[3,2-d]pyrimidine-7-carboxamide], the IC50 is reported as < 1 nM.
In the case of COCC(=O)N1CCC(NC(=O)c2c(C)[nH]c3c(-c4cc(C(C)=O)ccc4OCC4CC4)ncnc23)CC1 [Example E165, 4-[5-Acetyl-2-(cyclopropylmethoxy)phenyl]-N-[1-(methoxyacetyl)piperidin-4-yl]-6-methyl-5H-pyrrolo[3,2-d]pyrimidine-7-carboxamide], the IC50 is reported as < 1 nM.
Cc1[nH]c2c(-c3ccc(F)cc3OCC3CC3)ncnc2c1C(=O)N[C@@H]1CN(C(=O)CO)C[C@H]1O (relative stereo) [Example F19, 4-[2-(Cyclopropylmethoxy)-4-fluorophenyl]-N-[(3R*,4R*)-4-hydroxy-1-(hydroxyacetyl)pyrrolidin-3-yl]-6-methyl-5H-pyrrolo[3,2-d]pyrimidine-7-carboxamide] showed an IC50 of 1 to 10 nM.
In the case of CC(=O)N[C@H]1CC[C@@H](NC(=O)c2c(C)[nH]c3c(-c4cc(C)c(F)cc4OCC4CC4)ncnc23)CC1 [Example E125, N-[cis-4-(Acetylamino)cyclohexyl]-4-[2-(cyclopropylmethoxy)-4-fluoro-5-methylphenyl]-6-methyl-5H-pyrrolo[3,2-d]pyrimidine-7-carboxamide], the IC50 is reported as < 1 nM.
CCC(=O)N1CCC(NC(=O)c2c(C)[nH]c3c(-c4cc(C(C)=O)ccc4OCC4CC4)ncnc23)CC1 [Example E164, 4-[5-Acetyl-2-(cyclopropylmethoxy)phenyl]-6-methyl-N-(1-propanoylpiperidin-4-yl)-5H-pyrrolo[3,2-d]pyrimidine-7-carboxamide] was tested, and the IC50 was < 1 nM.
For COc1cc(OCC2CC2)c(-c2ncnc3c(C(=O)N[C@H]4CC[C@@H](NC(=O)CO)CC4)c(C)[nH]c23)cc1F [Example F87, 4-[2-(Cyclopropylmethoxy)-5-fluoro-4-methoxyphenyl]-N-[cis-4-(glycoloylamino)cyclohexyl]-6-methyl-5H-pyrrolo[3,2-d]pyrimidine-7-carboxamide], the IC50 was < 1 nM.
In the case of COc1cc(OCC2CC2)c(-c2ncnc3c(C(=O)N[C@@H]4CCN(C(C)=O)C[C@H]4O)c(C)[nH]c23)cc1F (relative stereo) [Example E142, N-[(3R*,4R*)-1-Acetyl-3-hydroxypiperidin-4-yl]-4-[2-(cyclopropylmethoxy)-5-fluoro-4-methoxyphenyl]-6-methyl-5H-pyrrolo[3,2-d]pyrimidine-7-carboxamide], the IC50 is reported as < 1 nM.
COCC(=O)N[C@H]1CC[C@@H](NC(=O)c2c(C)[nH]c3c(-c4cc(C)c(F)cc4OCC4CC4)ncnc23)CC1 [Example E127, 4-[2-(Cyclopropylmethoxy)-4-fluoro-5-methylphenyl]-N-{cis-4-[(methoxyacetyl)amino]cyclohexyl}-6-methyl-5H-pyrrolo[3,2-d]pyrimidine-7-carboxamide] was tested, and the IC50 was < 1 nM.
CCOc1ccc(C(F)(F)F)cc1-c1ncnc2c(C(=O)NC3CCN(C(=O)COC)CC3)c(C)[nH]c12 [Example E101, 4-[2-Ethoxy-5-(trifluoromethyl)phenyl]-N-[1-(methoxyacetyl)piperidin-4-yl]-6-methyl-5H-pyrrolo[3,2-d]pyrimidine-7-carboxamide] was tested, and the IC50 was < 1 nM.
In the case of COc1cc(-c2ncnc3c(C(=O)N[C@@H]4CN(C(=O)[C@H](C)O)C[C@H]4O)c(C)[nH]c23)c(OCC2CC2)cc1F (relative stereo) [Example F114, 4-[2-(Cyclopropylmethoxy)-4-fluoro-5-methoxyphenyl]-N-{(3R*,4R*)-4-hydroxy-1-[(2S)-2-hydroxypropanoyl]pyrrolidin-3-yl}-6-methyl-5H-pyrrolo[3,2-d]pyrimidine-7-carboxamide], the IC50 is reported as < 1 nM.
For COc1ccc(OCC2CC2)c(-c2ncnc3c(C(=O)NC4CN(C(=O)C(C)O)CC4O)c(C)[nH]c23)c1 (mixture of isomers) [Example F120, 4-[2-(Cyclopropylmethoxy)-5-methoxyphenyl]-N-{(31R*,4R*)-4-hydroxy-1-[(2S)-2-hydroxypropanoyl]pyrrolidin-3-yl}-6-methyl-5H-pyrrolo[3,2-d]pyrimidine-7-carboxamide], the IC50 was 1 to 10 nM.
In the case of COc1cc(-c2ncnc3c(C(=O)N[C@H]4CC[C@H](NC(C)=O)CC4)c(C)[nH]c23)c(OCC2CC2)cc1F [Example E106, N-(trans-4-Acetamidocyclohexyl)-4-[2-(cyclopropylmethoxy)-4-fluoro-5-methoxyphenyl]-6-methyl-5H-pyrrolo[3,2-d]pyrimidine-7-carboxamide], the IC50 is reported as < 1 nM.
